Measured values taken from patent publication US12570642B2, “GLP-IR modulating compounds” (Gilead Sciences, Inc., priority 2021, dated 2026).

Biological target: GLP-1R (Homo sapiens, UniProt P43220)
Experiment: GLP-1R Activation - cAMP Assay
Assay type: cell-based
Settings: cAMP increase in CHO cells stably expressing GLP-1R; each compound run on one of the two cAMP assays (Assay 1 or Assay 2, not specified)
Procedure, shortened: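 cAMP rise read by HTRF after 30 min agonist exposure (10-point titration, 37 °C) in HBSS/20 mM Hepes/0.1% BSA, following 1 h pre-incubation. Cells: stable GLP-1R CHO line, 1,000/well, seeded overnight. Sigmoidal fit of response vs log concentration gives EC50.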

Sequence of GLP-1R (P43220 24-463): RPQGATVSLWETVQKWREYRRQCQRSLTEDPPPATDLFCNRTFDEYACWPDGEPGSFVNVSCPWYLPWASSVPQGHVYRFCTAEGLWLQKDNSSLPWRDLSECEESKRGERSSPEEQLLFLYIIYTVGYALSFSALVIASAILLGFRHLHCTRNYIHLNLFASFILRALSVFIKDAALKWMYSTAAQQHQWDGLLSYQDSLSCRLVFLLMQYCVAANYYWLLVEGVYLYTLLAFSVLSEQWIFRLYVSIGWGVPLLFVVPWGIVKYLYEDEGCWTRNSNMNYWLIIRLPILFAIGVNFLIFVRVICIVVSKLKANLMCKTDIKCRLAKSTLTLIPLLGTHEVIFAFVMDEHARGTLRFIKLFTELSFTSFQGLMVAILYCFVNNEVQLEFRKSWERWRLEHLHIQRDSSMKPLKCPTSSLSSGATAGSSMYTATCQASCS

| SMILES | EC50 [nM] |
| --- | --- |
| COCCn1c(Cc2cc(F)c(-c3cccc(OCc4ccc(OCC(F)(F)F)nc4)n3)cc2F)nc2ccc(C(=O)O)cc21 [Example 35, 2-(2,5-difluoro-4-(6-((6-(2,2,2-trifluoroethoxy)pyridin-3-yl)methoxy)pyridin-2-yl)benzyl)-1-(2-methoxyethyl)-1H-benzo[d]imidazole-6-carboxylic Acid] | 2.67 |
| COCCn1c(Cc2cc(F)c(-c3ccnc(OCc4cnc(-n5ccnn5)cc4Cl)n3)cc2F)nc2ccc(C(=O)O)cc21 [Example 389, 2-(4-(2-((4-chloro-6-(1H-1,2,3-triazol-1-yl)pyridin-3-yl)methoxy)pyrimidin-4-yl)-2,5-difluorobenzyl)-1-(2-methoxyethyl)-1H-benzo[d]imidazole-6-carboxylic acid] | 0.55 |
| CC1(C)COC[C@H]1n1c(Cc2cc(F)c(-c3cccc(OCc4ccc(Cl)cc4)n3)cc2F)nc2ccc(C(=O)O)nc21 [Example 438, (S)-2-(4-(6-((4-chlorobenzyl)oxy)pyridin-2-yl)-2,5-difluorobenzyl)-3-(4,4-dimethyltetrahydrofuran-3-yl)-3H-imidazo[4,5-b]pyridine-5-carboxylic acid] | 0.519 |
| CC1(C)COCC1n1c(Cc2cc(F)c(-c3cccc(OCc4ccc(Cl)nc4)n3)cc2F)nc2ccc(C(=O)O)cc21 (centres unmarked) [Example 92] | 0.13 |
| COCCn1c(Cc2c(F)cc(-c3cccc(OCc4ccc(-n5ccnn5)cc4F)n3)c(F)c2F)nc2c(F)cc(C(=O)O)cc21 [Example 250, 4-fluoro-1-(2-methoxyethyl)-2-(2,3,6-trifluoro-4-(6-((2-fluoro-4-(1H-1,2,3-triazol-1-yl)benzyl)oxy)pyridin-2-yl)benzyl)-1H-benzo[d]imidazole-6-carboxylic acid] | 0.048 |
| COc1cc(Cl)ncc1COc1nc(-c2ccc(Cc3nc4c(F)cc(C(=O)O)cc4n3[C@@H]3COCC3(C)C)c(F)c2)ccc1F [Example 324, (S)-2-(4-(6-((6-chloro-4-methoxypyridin-3-yl)methoxy)-5-fluoropyridin-2-yl)-2-fluorobenzyl)-1-(4,4-dimethyltetrahydrofuran-3-yl)-4-fluoro-1H-benzo[d]imidazole-6-carboxylic acid] | 0.049 |
| COCCn1c(Cc2ccc(-c3ccc(F)c(OCc4cnc(-n5ccnn5)cc4Cl)n3)cc2F)nc2ccc(C(=O)O)cc21 [Example 155, 2-(4-(6-((4-chloro-6-(1H-1,2,3-triazol-1-yl)pyridin-3-yl)methoxy)-5-fluoropyridin-2-yl)-2-fluorobenzyl)-1-(2-methoxyethyl)-1H-benzo[d]imidazole-6-carboxylic Acid] | 0.416 |
| CO[C@H](C)[C@@H](C)n1c(Cc2cc(F)c(-c3cccc(OCc4ccc(Cl)cc4F)n3)cc2F)nc2ccc(C(=O)O)cc21 [Example 565, 2-(4-(6-((4-chloro-2-fluorobenzyl)oxy)pyridin-2-yl)-2,5-difluorobenzyl)-1-((2R,3R)-3-methoxybutan-2-yl)-1H-benzo[d]imidazole-6-carboxylic acid] | 0.194 |
| CC1(C)COC[C@H]1n1c(Cc2cc(F)c(-c3cccc(OCc4ccc(C(F)F)nc4)n3)cc2F)nc2ccc(C(=O)O)cc21 [Example 420, (S)-2-(4-(6-((6-(difluoromethyl)pyridin-3-yl)methoxy)pyridin-2-yl)-2,5-difluorobenzyl)-1-(4,4-dimethyltetrahydrofuran-3-yl)-1H-benzo[d]imidazole-6-carboxylic acid] | 0.413 |
| CC1(C)COC[C@H]1n1c(Cc2c(F)cc(-c3cccc(OCc4ccc(Cl)cc4F)n3)c(F)c2F)nc2ccc(C(=O)O)cc21 [Example 247, (S)-2-(4-(6-((4-chloro-2-fluorobenzyl)oxy)pyridin-2-yl)-2,3,6-trifluorobenzyl)-1-(4,4-dimethyltetrahydrofuran-3-yl)-1H-benzo[d]imidazole-6-carboxylic acid] | 0.151 |
| CC1(C)COCC1n1c(Cc2c(F)cc(-c3cccc(OCc4ccc(C#N)cc4F)n3)c(F)c2F)nc2ccc(C(=O)O)cc21 (centres unmarked) [Example 293, 2-(4-(6-((4-cyano-2-fluorobenzyl)oxy)pyridin-2-yl)-2,3,6-trifluorobenzyl)-1-(4,4-dimethyltetrahydrofuran-3-yl)-1H-benzo[d]imidazole-6-carboxylic acid] | 0.04 |
| COCCn1c(Cc2cc(F)c(-c3cccc(OCc4ccc(-c5cncn5C)cc4F)n3)cc2F)nc2ccc(C(=O)O)cc21 [Example 113] | 11 |
| CC1(C)COC[C@H]1n1c(Cc2cc(F)c(-c3cccc(OCc4cnc(-n5ccnn5)cc4Cl)n3)cc2F)nc2c(Cl)cc(C(=O)O)cc21 [Example 528, (S)-4-chloro-2-(4-(6-((4-chloro-6-(1H-1,2,3-triazol-1-yl)pyridin-3-yl)methoxy)pyridin-2-yl)-2,5-difluorobenzyl)-1-(4,4-dimethyltetrahydrofuran-3-yl)-1H-benzo[d]imidazole-6-carboxylic acid] | 0.047 |
| Cc1cc(Cc2nc3ccc(C(=O)O)cc3n2[C@@H]2COCC2(C)C)c(F)cc1-c1cccc(OCc2ccc(C#N)cc2F)n1 [Example 278, (S)-2-(4-(6-((4-cyano-2-fluorobenzyl)oxy)pyridin-2-yl)-2-fluoro-5-methylbenzyl)-1-(4,4-dimethyltetrahydrofuran-3-yl)-1H-benzo[d]imidazole-6-carboxylic acid] | 0.085 |
| CC1(C)COC[C@@H]1n1c(Cc2c(F)cc(-c3cccc(OCc4ccc(C#N)cc4F)n3)c(F)c2F)nc2c(F)cc(C(=O)O)cc21 [Example 123] | 0.528 |
| CC1(C)COC[C@H]1n1c(Cc2c(F)cc(-c3ccnc(OCc4ccc(Cl)cc4F)n3)c(F)c2F)nc2c(F)cc(C(=O)O)cc21 [Example 196, (S)-2-(4-(2-((4-chloro-2-fluorobenzyl)oxy)pyrimidin-4-yl)-2,3,6-trifluorobenzyl)-1-(4,4-dimethyltetrahydrofuran-3-yl)-4-fluoro-1H-benzo[d]imidazole-6-carboxylic acid] | 0.508 |
| COCCn1c(Cc2cc(F)c(-c3cccc(OCc4cnc(-n5ccnn5)cc4Cl)n3)cc2F)nc2ccc(C(=O)O)cc21 [Example 214, 2-(4-(6-((4-chloro-6-(1H-1,2,3-triazol-1-yl)pyridin-3-yl)methoxy)pyridin-2-yl)-2,5-difluorobenzyl)-1-(2-methoxyethyl)-1H-benzo[d]imidazole-6-carboxylic acid] | 0.299 |
| CO[C@H](C)Cn1c(Cc2cc(F)c(-c3cccc(OCc4cc(F)c(Cl)cc4F)n3)cc2F)nc2c(F)cc(C(=O)O)cc21 [Example 353, (R)-2-(4-(6-((4-chloro-2,5-difluorobenzyl)oxy)pyridin-2-yl)-2,5-difluorobenzyl)-4-fluoro-1-(2-methoxypropyl)-1H-benzo[d]imidazole-6-carboxylic acid] | 1.18 |
| Cc1cc(Cc2nc3c(F)cc(C(=O)O)cc3n2[C@@H]2COCC2(C)C)c(Cl)cc1-c1ccc(F)c(OCc2ccc(C#N)cc2)n1 [Example 136, (S)-2-(2-chloro-4-(6-((4-cyanobenzyl)oxy)-5-fluoropyridin-2-yl)-5-methylbenzyl)-1-(4,4-dimethyltetrahydrofuran-3-yl)-4-fluoro-1H-benzo[d]imidazole-6-carboxylic Acid] | 0.312 |
| COCCn1c(Cc2c(F)cc(-c3ccc(F)c(OCc4ccc(Cl)cc4F)n3)c(F)c2F)nc2c(F)cc(C(=O)O)cc21 [Example 485, 2-(4-(6-((4-chloro-2-fluorobenzyl)oxy)-5-fluoropyridin-2-yl)-2,3,6-trifluorobenzyl)-4-fluoro-1-(2-methoxyethyl)-1H-benzo[d]imidazole-6-carboxylic acid] | 0.203 |
| CC1(C)COC[C@H]1n1c(Cc2c(F)cc(-c3cccc(OCc4ccc(C#N)cc4)n3)c(F)c2F)nc2ccc(C(=O)O)cc21 [Example 245, (S)-2-(4-(6-((4-cyanobenzyl)oxy)pyridin-2-yl)-2,3,6-trifluorobenzyl)-1-(4,4-dimethyltetrahydrofuran-3-yl)-1H-benzo[d]imidazole-6-carboxylic acid] | 0.051 |
| CC1(C)COC[C@H]1n1c(Cc2cc(F)c(-c3ccc(F)c(OCc4ccc(Cl)cc4)n3)cc2F)nc2c(F)cc(C(=O)O)cc21 [Example 228, (S)-2-(4-(6-((4-chlorobenzyl)oxy)-5-fluoropyridin-2-yl)-2,5-difluorobenzyl)-1-(4,4-dimethyltetrahydrofuran-3-yl)-4-fluoro-1H-benzo[d]imidazole-6-carboxylic acid] | 0.047 |
| O=C(O)c1ccc2nc(Cc3cc(F)c(-c4cccc(OCc5ccc(Cl)cc5F)n4)cc3F)n(C3COC4CC3C4)c2c1 (racemic) [Example 407, 1-((4R)-2-oxabicyclo[3.1.1]heptan-4-yl)-2-(4-(6-((4-chloro-2-fluorobenzyl)oxy)pyridin-2-yl)-2,5-difluorobenzyl)-1H-benzo[d]imidazole-6-carboxylic acid] | 0.421 |
| CS(=O)(=O)N1Cc2ccc(COc3cccc(-c4cc(F)c(Cc5nc6ccc(C(=O)O)cc6n5C[C@@H]5CCO5)cc4F)n3)cc2C1 [Example 519, (S)-2-(2,5-difluoro-4-(6-((2-(methylsulfonyl)isoindolin-5-yl)methoxy)pyridin-2-yl)benzyl)-1-(oxetan-2-ylmethyl)-1H-benzo[d]imidazole-6-carboxylic acid] | 0.102 |
| COCCn1c(Cc2c(F)cc(-c3cccc(OCc4cnc(-n5ccnn5)cc4Cl)n3)c(F)c2F)nc2c(F)cc(C(=O)O)cc21 [Example 226, 2-(4-(6-((4-chloro-6-(1H-1,2,3-triazol-1-yl)pyridin-3-yl)methoxy)pyridin-2-yl)-2,3,6-trifluorobenzyl)-4-fluoro-1-(2-methoxyethyl)-1H-benzo[d]imidazole-6-carboxylic acid] | 0.022 |
| CC1(C)COC[C@H]1n1c(Cc2cc(F)c(-c3cccc(OCc4ccc(Cl)cc4F)c3)cc2F)nc2ccc(C(=O)O)cc21 [Example 508, (S)-2-((3′-((4-chloro-2-fluorobenzyl)oxy)-2,5-difluoro-[1,1′-biphenyl]-4-yl)methyl)-1-(4,4-dimethyltetrahydrofuran-3-yl)-1H-benzo[d]imidazole-6-carboxylic acid] | 0.302 |
